Each structure is given as a SMILES string. pIC50: −log10 of the molar value.

The test has as its target T1, human IL-17A (Homo sapiens, UniProt Q16552).
T1 construct: purchased R&D Systems 7955-IL/CF
T1 sequence (Q16552 24-155): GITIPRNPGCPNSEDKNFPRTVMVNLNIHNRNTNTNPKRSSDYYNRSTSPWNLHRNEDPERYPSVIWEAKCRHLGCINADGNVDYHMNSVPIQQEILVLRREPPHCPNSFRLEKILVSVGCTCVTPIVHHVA
Put plainly: IL-17A AlphaLISA competition assay (block of IL-17A binding to its receptor IL-17RA). As to conditions: mean IC50 (n≥2), block of IL-17A binding to IL-17RA. The method in brief: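 Bead-based AlphaLISA competition in PBS with 0.05% Tween-20 and 0.1% BSA: compound first meets human IL-17A (7.5 nM stock) for 30 min, then IL-17RA/Fc (5 nM stock) for 90 min, all at room temperature, before acceptor/donor bead capture. IC50 fitted 4-parameter, DMSO and 4 μM reference inhibitor as controls; at least duplicate.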
The compound `CCc1oncc1C(=O)N[C@H](C(=O)Nc1cc(C[C@H]2C[C@@H](C(F)(F)F)NC2=O)ccn1)C1CCC(F)(F)CC1` [Example 218, N-((S)-1-(4,4-difluorocyclohexyl)-2-oxo-2-((4-(((3S,5S)-2-oxo-5-(trifluoromethyl)pyrrolidin-3-yl)methyl)pyridin-2-yl)amino)ethyl)-5-ethylisoxazole-4-carboxamide] gave a pIC50 of 6.80.
To `CC(C)n1nccc1C(=O)N[C@H](C(=O)Nc1cc(C(NC(=O)CCC(F)(F)F)C2CC2)ccn1)C1CCC(F)(F)CC1` (stereo partly drawn) [Example 110, N-((1S)-2-((4-(cyclopropyl(4,4,4-trifluorobutanamido)methyl)pyridin-2-yl)amino)-1-(4,4-difluorocyclohexyl)-2-oxoethyl)-1-isopropyl-1H-pyrazole-5-carboxamide] belongs 7.52; to `COCC(c1ccnc(NC(=O)[C@@H](NC(=O)c2ncsc2C#N)[C@H]2CC[C@H](C)CC2)c1)N1C[C@@H](C(F)(F)F)NC1=O` (single isomer, unassigned) [Example 92], 6.27.
To `COCC(NC(=O)CCC(F)(F)F)c1ccnc(NC(=O)C(NC(=O)c2nonc2C2CC2)C2CCC(C)CC2)c1` [Example 243, 4-cyclopropyl-N-((1S)-2-((4-(2-methoxy-1-(4,4,4-trifluorobutanamido)ethyl)pyridin-2-yl)amino)-1-((1r,4S)-4-methylcyclohexyl)-2-oxoethyl)-1,2,5-oxadiazole-3-carboxamide] belongs 7.42.
`Cn1nccc1C(=O)N[C@H](C(=O)Nc1cc(CC(=O)NCCC(F)(F)F)ccn1)C(C1CC1)C1CC1` [Example 31, (S)—N-(1,1-dicyclopropyl-3-oxo-3-((4-(2-oxo-2-((3,3,3-trifluoro-propyl)amino)ethyl)pyridin-2-yl)amino)propan-2-yl)-1-methyl-1H-pyrazole-5-carboxamide] gave a pIC50 of 5.30.
To `O=C(N[C@H](C(=O)Nc1cc(C(C2CC2)N2C[C@@H](C(F)(F)F)NC2=O)ccn1)C1CCC(F)(F)CC1)c1nonc1C1CC1` (single isomer, unassigned) [Example 163, 4-Cyclopropyl-N-((S)-2-((4-((R or S)-cyclopropyl((S)-2-oxo-4-(trifluoromethyl)imidazolidin-1-yl)methyl)pyridin-2-yl)amino)-1-(4,4-difluorocyclohexyl)-2-oxoethyl)-1,2,5-oxadiazole-3-carboxamide] belongs 7.70; to `CCc1oncc1C(=O)NC(C(=O)Nc1cc([C@@H](COC)N2CC(F)(F)CNC2=O)ccn1)C1CCC(F)(F)CC1` (stereo in doubt) [Example 176, N—((S)-2-((4-((S)-1-(5,5-difluoro-2-oxotetrahydropyrimidin-1(2H)-yl)-2-methoxyethyl)pyridin-2-yl)amino)-1-(4,4-difluorocyclohexyl)-2-oxoethyl)-5-ethylisoxazole-4-carboxamide], 7.24.
The value for `CC1(C)CN(Cc2ccnc(NC(=O)[C@@H](NC(=O)OC(C)(C)C)[C@H]3CC[C@H](C)CC3)c2)C(=O)N1` [Example 24, Tert-butyl ((S)-2-((4-((4,4-dimethyl-2-oxoimidazolidin-1-yl)methyl)pyridin-2-yl)amino)-1-((1r,4S)-4-methylcyclohexyl)-2-oxoethyl)carbamate] was 5.98; that for `COCC(c1ccnc(NC(=O)[C@@H](NC(=O)c2nonc2C)[C@H]2CC[C@H](C)CC2)c1)N1C[C@@H](C(F)(F)F)NC1=O` (single isomer, unassigned) [Example 75] was 6.87; that for `COCC(c1ccnc(NC(=O)[C@@H](NC(=O)c2nocc2C)[C@H]2CC[C@H](C)CC2)c1)N1C[C@@H](C(F)(F)F)NC1=O` (single isomer, unassigned) [Example 120] was 7.74.
Regarding `C[C@H]1CC[C@H]([C@H](NC(=O)c2nonc2C2CC2)C(=O)Nc2cc(C[C@@H]3C[C@@H](C(F)(F)F)NC3=O)ccn2)CC1` [Example 152, 4-cyclopropyl-N—((S)-1-((1r,4S)-4-methylcyclohexyl)-2-oxo-2-((4-(((3R,5S)-2-oxo-5-(trifluoromethyl)pyrrolidin-3-yl)methyl)pyridin-2-yl)amino)ethyl)-1,2,5-oxadiazole-3-carboxamide], the pIC50 is 5.69.
`COCC(NC(=O)CCC(F)(F)F)c1ccnc(NC(=O)[C@@H](NC(=O)c2ccnn2C(C)C)C2CCC(F)(F)CC2)c1` (single isomer, unassigned) [Example 137]: the pIC50 was 6.71.
`CCc1nocc1C(=O)N[C@H](C(=O)Nc1cc([C@@H](COC)N2C[C@@H](C(F)(F)F)NC2=O)ccn1)[C@H]1CCCC(F)(F)C1` (single isomer, unassigned) [Example 307] had a pIC50 of 7.29.
The compound `CCC(c1ccnc(NC(=O)C(NC(=O)c2ccnn2C(C)C)C2CCC(C)CC2)c1)N1CC(C(F)(F)F)NC1=O` [Example 260, 1-isopropyl-N-((S)-1-((1r,4S)-4-methylcyclohexyl)-2-oxo-2-((4-((R)-1-((S)-2-oxo-4-(trifluoromethyl)imidazolidin-1-yl)propyl)pyridin-2-yl)amino)ethyl)-1H-pyrazole-5-carboxamide] showed a negative-log IC50 (pIC50) of 7.89.
Take `COCC(NC(=O)CCC(F)(F)F)c1ccnc(NC(=O)[C@@H](NC(=O)c2nonc2C2CC2)C2CCC(F)(F)CC2)c1` (single isomer, unassigned) [Example 134]: the pIC50 was 5.90.
The value for `COC[C@H](c1ccnc(NC(=O)C(NC(=O)c2nocc2C)C2CCC(F)CC2)c1)N1C[C@@H](C(F)(F)F)NC1=O` (single isomer, unassigned) [Example 284] was 7.21; that for `COCC(c1ccnc(NC(=O)[C@@H](NC(=O)c2nonc2C2CC2)C2CCC(F)(F)CC2)c1)[C@@H]1C[C@@H](C(F)(F)F)NC1=O` (single isomer, unassigned) [Example 184, 4-Cyclopropyl-N—((S)-1-(4,4-difluorocyclohexyl)-2-((4-((R or S)-2-methoxy-1-((3S,5S)-2-oxo-5-(trifluoromethyl)pyrrolidin-3-yl)ethyl)pyridin-2-yl)amino)-2-oxoethyl)-1,2,5-oxadiazole-3-carboxamide] was 6.20; that for `O=C(CCC(F)(F)F)NC(c1ccnc(NC(=O)[C@@H](NC(=O)c2nonc2C2CC2)C(C2CC2)C2CC2)c1)C1CC1` (single isomer, unassigned) [Example 40] was 7.04.
To `C[C@@H]1CN(Cc2ccnc(NC(=O)[C@@H](NC(=O)c3ccnn3C3CC3)C(C3CC3)C3CC3)c2)C(=O)N1` [Example 34, 1-cyclopropyl-N—((S)-1,1-dicyclopropyl-3-((4-(((R)-4-methyl-2-oxoimidazolidin-1-yl)methyl)pyridin-2-yl)amino)-3-oxopropan-2-yl)-1H-pyrazole-5-carboxamide] belongs 5.83.
As for `CCc1nocc1C(=O)N[C@H](C(=O)Nc1cc(CN2C[C@@H](C(F)(F)F)NC2=O)ccn1)C1CCC(F)(F)CC1` [Example 13, N-((S)-1-(4,4-difluorocyclohexyl)-2-oxo-2-((4-(((S)-2-oxo-4-(trifluoromethyl)imidazolidin-1-yl)methyl)pyridin-2-yl)amino)ethyl)-3-ethylisoxazole-4-carboxamide], the pIC50 is 6.91.
In turn, `C[C@H]1CC[C@H]([C@H](NC(=O)c2ccnn2CCC(O)C(F)(F)F)C(=O)Nc2cc(CN3C[C@@H](C(F)(F)F)NC3=O)ccn2)CC1` (single isomer, unassigned) [Example 69] showed a pIC50 of 6.90.

(Values after patent US20260200928A1, “THERAPEUTIC COMPOUNDS” (Sanofi, priority 2022, published 2026).)
